Source: patent publication US20160311886A1, “Constructs Binding to Phosphatidylserine and Their Use in Disease Treatment and Imaging” (Board of Regents, The University of Texas System, priority 2005, published 2016)

What was measured:
[1] = system: ABAE cells; experiment: Induction of PS exposure, 125I-annexin V binding; assay type: cell-based, bovine
Method: (§1) All reagents were diluted in medium containing 10% serum and incubated with the cells at 37° C. for 24 h.
(§2) To study the effect of hypoxia, cells were seeded on 24 well plates and were incubated in a humidified normoxic atmosphere (21% O2, 5% CO2) for 48 h before being transferred to a humidified hypoxic atmosphere (1% O2, 5% CO2, 94% N2) in a sealed chamber (Billups Rothenberg Inc., Del Mar, Ca). Cells were incubated in a hypoxic chamber for 24 h at 37° C. and were then returned to a normoxic environment for 4 h at 37° C. The cells were compared to a parallel culture from an identical passage, seeded on the same day and maintained entirely under normoxic conditions. In some studies, IL-1α (10 ng/ml) and TNFα (20 ng/ml) were added to the medium before transfer to the hypoxic chamber.
(§3) After treatment with the reagents described above, treated and control cells were incubated with 7.1 pmoles of ^125I-labeled annexin V (200 μl/well) in the binding buffer. After 2 h incubation at room temperature, cells were washed extensively and dissolved in 0.5 M of NaOH. The entire volume of 0.5 ml was transferred to plastic tubes and counted in a gamma counter. Non-specific binding was determined in the presence of 5 mM EDTA and was subtracted from experimental values. The results were expressed as net pmoles of cell-bound annexin V, normalized per 1×10^6 cells.
(§4) Maximal binding of annexin V was determined on cells simultaneously treated with actinomycin D and TNFα (50 ng/ml of each component). As has been previously reported, these agents cause apoptosis and PS exposure in 90-100% of endothelial cells (Lucas et al., 1998). Basal binding of ^125I-annexin V to untreated cells was determined in the presence of medium with 10% serum. The amount of ^125I-annexin V that bound to the untreated cultures was subtracted from that in the treated cultures. Exposure of PS was calculated according to the following formula: cell-bound annexin V (pmoles) under experimental conditions divided by maximal annexin V binding (pmoles), multiplied by 100. Each study was performed in duplicate and was performed at least three times. Mean values were calculated. The SE of the mean values from three separate experiments was less than 5%.

[2] = system: bEnd.3 cells; experiment: Induction of PS exposure, 125I-annexin V binding; assay type: cell-based, mouse
Method: as §1, §2, §3, §4

[3] = system: ABAE cells with exposed PS; experiment: Live-cell binding assay on LPC-treated endothelial cells; assay type: cell-based, bovine
Method: Adult bovine aortic endothelial (ABAE) cells were maintained in DMEM supplemented with 10% FBS and 2 mM L-glutamine. ABAE cells were removed from subconfluent cultures by brief exposure to 0.25% trypsin/0.02% EDTA, and 8-well chamber slides were seeded with 2×10^4 cells/well. Following overnight culture, cells were washed gently with PBS and treated with 200 μM lysophosphatidylcholine (LPC) to induce PS exposure.
PS exposure was determined by immunofluorescence staining. Cells were washed thoroughly in PBS, fixed in 4% paraformaldehyde (w/v), and incubated with a biotin-conjugated anti-mouse secondary antibody. Next, cells were incubated with FITC-conjugated streptavidin (Jackson Immunoresearch) to detect antibody binding. Cells were then permeablized with 0.1% Triton-X100 in PBS and counterstained with Texas Red-conjugated phalloidin (Molecular Probes, Eugene, Oreg.), and 4′, 6-diamidino-2-phenylindole (DAPI; Molecular Probes). Images were captured using a Coolsnap digital camera (Photometrics, Tucson, Ariz.) mounted on a Nikon microscope and processed with MetaVue software (Universal Imaging Corporation, Downingtown, Pa.).
The area of antibody binding was determined using MetaVue image analysis software, which is able to quantify the number of illuminated pixels in an image. Images of FITC fluorescence were used to quantify antibody binding. Corresponding images of DAPI fluorescence were used to normalize the FITC images for the number of cells present in the field. A small FITC/DAPI ratio indicates a small antibody binding area, whereas a large FITC/DAPI ratio indicates a large binding area. The FITC/DAPI ratios were used to determine increases or decreases in antibody binding area relative to a basal amount of antibody binding under the selected conditions. Five images at 200× magnification were used for each analysis. Data are presented as average relative FITC/DAPI ratios with error bars representing the standard deviation.
Cells were then washed, fixed, and stained with fluorescent markers to visualize binding of antibody to the cell surface.

[4] = Binding of ch3G4 and 2aG4 to phospholipid-coated ELISA plates; conditions: vs 3G4
[5] = Phospholipid specificity ELISA; assay type: binding
Method: The specificity of the antibodies was determined by ELISA using plates coated with the following phospholipids: PS, phosphatidylserine; PE, phosphatidylethanolamine; PI, phosphatidylinositol; PA, phosphatidic acid; PG, phosphatidylglycerol; PC, phosphatidylcholine; CL, cardiolipin; and SM, sphingomyelin.

[6] = Serum dependence of binding to PS
Method: The serum dependence or independence of the antibodies is also set forth in Table 2 (see also, Example XXX).
The 1B9, 2G7 and 7C5 antibodies behave essentially the same. These antibodies recognize only PS and require serum or serum proteins for binding to PS. The binding of 1B9, 2G7 and 7C5 to various phospholipids in the present example was assayed only in the presence of 10% bovine serum, whereas binding of the other antibodies was tested either in the absence or in the presence of serum.

[7] = system: WiDr (colon carcinoma); experiment: WiDr colon carcinoma model; assay type: in vivo, mouse; conditions: 100 μg 3×/week from day 5; preliminary study
Method: Treatment was started on day 5, when the tumors were small (10 mice per group). 100 μg of each antibody was injected 3×/week and tumor growth monitored.

[8] = Hypoxia (1% O2) + TNFα 20 ng/ml
[9] = Hypoxia (1% O2) + IL-1α 10 ng/ml

Molecule: FGF-2: human fibroblast growth factor-2
- 125I-Annexin V (% of Max binding) ([1]; 20 ng/ml, 24 h): 0 % of Max binding
- 125I-Annexin V (% of Max binding) ([2]; 20 ng/ml, 24 h): 0 % of Max binding

Molecule: GM-CSF: cytokine tested on endothelial cells
- binding of 125I-annexin V above the basal level for untreated cells ([1]; ABAE and bEnd.3 cells): did not increase binding

Molecule: IL-6: interleukin-6
- 125I-Annexin V (% of Max binding) ([1]; 20 ng/ml, 24 h): 0 % of Max binding
- 125I-Annexin V (% of Max binding) ([2]; 20 ng/ml, 24 h): 0 % of Max binding

Molecule: IL-8: interleukin-8
- 125I-Annexin V (% of Max binding) ([1]; 20 ng/ml, 24 h): 0 % of Max binding
- 125I-Annexin V (% of Max binding) ([2]; 20 ng/ml, 24 h): 0 % of Max binding

Molecule: IL-10: interleukin-10
- 125I-Annexin V (% of Max binding) ([1]; 20 ng/ml, 24 h): 0 % of Max binding
- 125I-Annexin V (% of Max binding) ([2]; 20 ng/ml, 24 h): 0 % of Max binding

Molecule: Scatter factor: Recombinant hepatocyte growth factor (HGF or scatter factor)
- 125I-Annexin V (% of Max binding) ([1]; 40 ng/ml, 24 h): 0 % of Max binding
- 125I-Annexin V (% of Max binding) ([2]; 40 ng/ml, 24 h): 0 % of Max binding

Molecule: TGF β1: growth factor tested on endothelial cells
- 125I-Annexin V (% of Max binding) ([1]; 20 ng/ml, 24 h): 0 % of Max binding
- 125I-Annexin V (% of Max binding) ([2]; 20 ng/ml, 24 h): 0 % of Max binding

Molecule: TNFα
- 125I-Annexin V (% of Max binding) ([1]; 20 ng/ml, 24 h): 7.4 % of Max binding
- 125I-Annexin V (% of Max binding) [1, 8]: 33.0 % of Max binding
- 125I-Annexin V (% of Max binding) ([2]; 20 ng/ml, 24 h): 13.7 % of Max binding
- 125I-Annexin V (% of Max binding) [2, 8]: 36.0 % of Max binding

Molecule: Thrombin
- 125I-Annexin V (% of Max binding) ([1]; 50 nM, 24 h): 8.8 % of Max binding
- 125I-Annexin V (% of Max binding) ([2]; 50 nM, 24 h): 17.4 % of Max binding

Molecule: VEGF
- 125I-Annexin V (% of Max binding) ([1]; 20 ng/ml, 24 h): 0 % of Max binding
- 125I-Annexin V (% of Max binding) ([2]; 20 ng/ml, 24 h): 0 % of Max binding

B1: 3G4 Fab′: Monovalent fragment of 3G4 (antibody)
VH: EVQLQQSGPELEKPGASVKLSCKASGYSFTGYNMNWVKQSHGKSLEWIGHIDPYYGDTSYNQKFRGKATLTVDKSSSTAYMQLKSLTSEDSAVYYCVKGGYYGHWYFDVWGAGTTVTVSSATTTAPSVYPLVP
light: DIQMTQSPSSLSASLGERVSLTCRASQDIGSSLNWLQQGPDGTIKRLIYATSSLDSGVPKRFSGSRSGSDYSLTISSLESEDFVDYYCLQYVSSPPTFGAGTKLELKRADAAPTVSIFPPSSEQLTSGGASVVCFLNNFYPKDINVKWKIDGSERQNGVLNSWTDQDSKDSTYSMSSTLTLTKDEYERHNSYTCEATHKTSTSPIVKSFNRNEC
- inhibition of ch3G4/β2GPI binding ([3]; 20 nM ch3G4, 40 nM hβ2GPI): inhibited ch3G4/β2GPI binding to LPC-treated ABAE cells in a concentration-dependent manner
- binding to LPC-treated ABAE cells ([3]; 20 nM, DMEM+10% FBS): negligible
- binding to ABAE cells ([3]; 2 μM, 40 nM hβ2GPI): No binding

B2: IL-1α: Recombinant murine interleukin-1 alpha (protein, UniProt P01582 115-270, looked up)
Interleukin-1 alpha: SAPYTYQSDLRYKLMKLVRQKFVMNDSLNQTIYQDVDKHYLSTTWLNDLQQEVKFDMYAYSSGGDDSKYPVTLKISDSQLFVSAQGEDQPVLLKELPETPKLITGSETDLIFFWKSINSKNYFTSAAYPELFIATKEQSRVHLARGLPSMTDFQIS
- 125I-Annexin V (% of Max binding) ([1]; 10 ng/ml, 24 h): 6.4 % of Max binding
- 125I-Annexin V (% of Max binding) [1, 9]: 26.0 % of Max binding
- 125I-Annexin V (% of Max binding) ([2]; 10 ng/ml, 24 h): 7.5 % of Max binding
- 125I-Annexin V (% of Max binding) [2, 9]: 31.0 % of Max binding

B3: IL-1β: Recombinant murine interleukin-1 beta (protein, UniProt P10749 118-269, looked up)
Interleukin-1 beta: VPIRQLHYRLRDEQQKSLVLSDPYELKALHLNGQNINQQVIFSMSFVQGEPSNDKIPVALGLKGKNLYLSCVMKDGTPTLQLESVDPKQYPKKKMEKRFVFNKIEVKSKVEFESAEFPNWYISTSQAEHKPVFLGNNSGQDIIDFTMESVSS
- 125I-Annexin V (% of Max binding) ([1]; 10 ng/ml, 24 h): 5.8 % of Max binding
- 125I-Annexin V (% of Max binding) ([2]; 10 ng/ml, 24 h): 5.5 % of Max binding

B4: nicked hβ2GPI: hβ2GPI cleaved by plasmin at Lys317/Thr318; non-lipid binding form (protein)
chain: GRTCPKPDDLPFSTVVPLKTFYEPGEEITYSCKPGYVSRGGMRKFICPLTGLWPINTLKCTPRVCPFAGILENGAVRYTTFEYPNTISFSCNTGFYLNGADSAKCTEEGKWSPELPVCAPIICPPPSIPTFATLRVYKPSAGNNSLYRDTAVFECLPQHAMFGNDTITCTTHGNWTKLPECREVKCPFPSRPDNGFVNYPAKPTLYYKDKATFGCHDGYSLDGPEEIECTKLGNWSAMPSCKASCKLPVKKATVVYQGERVKIQEKFKNGMLHGDKVSFFCKNKEKKCSYTEDAQCIDGTIEVPKCFKEHSSLAFWKTDASDVKPC
- mediation of ch3G4 binding to ABAE cells with exposed PS ([3]; 2 μg/ml, LPC): not able to mediate binding

B5: 2aG4: Recombinant mouse IgG2a isotype of 3G4; SEQ ID NO:10 and 11 (antibody, listed as Mus musculus)
heavy: MGWTWIFILILSVTTGVHSEVQLQQSGPELEKPGASVKLSCKASGYSFTGYNMNWVKQSHGKSLEWIGHIDPYYGDTSYNQKFRGKATLTVDKSSSTAYMQLKSLTSEDSAVYYCVKGGYYGHWYFDVWGAGTTVTVSSAKTTAPSVYPLAPVCGDTTGSSVTLGCLVKGYFPEPVTLTWNSGSLSSGVHTFPAVLQSDLYTLSSSVTVTSSTWPSQSITCNVAHPASSTKVDKKEPRGPTIKPCPPCKCPAPNLLGGPSVFIFPPKIKDVLMISLSPIVTCVVVDVSEDDPDVQISWFVNNVEVHTAQTQTHREDYNSTLRVVSALPIQHQDWMSGKEFKCKVNNKDLPAPIERTISKPKGSVRAPQVYVLPPPEEEMTKKQVTLTCMVTDFMPEDIYVEWTNNGKTELNYKNTEPVLDSDGSYFMYSKLRVEKKNWVERNSYSCSVVHEGLHNHHTTKSFSRTPGK
light: MDMRAPAQILGFLLLLFPGTRCDIQMTQSPSSLSASLGERVSLTCRASQDIGSSLNWLQQGPDGTIKRLIYATSSLDSGVPKRFSGSRSGSDYSLTISSLESEDFVDYYCLQYVSSPPTFGAGTKLELKRADAAPTVSIFPPSSEQLTSGGASVVCFLNNFYPKDINVKWKIDGSERQNGVLNSWTDQDSKDSTYSMSSTLTLTKDEYERHNSYTCEATHKTSTSPIVKSFNRNEC
- affinity and specificity in PS-ELISA [4]: essentially the same as for 3G4
- Relative Strength of Reactivity on ELISA [5]: PS = PA = PI = PG = CL >> PE
- Serum cofactor? [6]: Yes
- tumor growth [7]: slowed tumor growth to essentially the same degree
